Source: publication PMC3818031 (Acta Crystallographica Section F: Structural Biology and …, 2013)

Target: T1, Ara1 (Saccharomyces cerevisiae, UniProt P38115)
T1 construct: Ni-NTA and Superdex 200; tag cleavage not mentioned; homodimer
Test: X-ray crystallography of co-crystal, […] A
Conditions: co-crystallised with 5 mM NADPH, pH 6.5, 0.05 M CaCl2, 289 K; cofactor-binding site

In the case of `NC(=O)C1=CN([C@@H]2O[C@H](COP(=O)(O)OP(=O)(O)OC[C@H]3O[C@@H](n4cnc5c(N)ncnc54)[C@H](OP(=O)(O)O)[C@@H]3O)[C@@H](O)[C@H]2O)C=CC1` [NADPH], the “X-ray crystallography of co-crystal, 2.00 A” value is reported as “The structure of the Ara1–NADPH complex showed that a molecule of NADPH binds”.
